# US20150072929A1, “Pharmaceutical composition comprising a mixture of carboxylated oligopeptides” (priority 2013, published 2015)
# Legend:
# HeLa-2 cells = assay: Anti-cancer activity in cell culture, MAD and cytopathic activity; type: cell-based; settings: minimum amount causing degeneration of 90-95% of the cells, five days
# Procedure: The anti-cancer activity of MPs. The determination of the anti-cancer activity of Anticanum in a cell culture was made in a culture of HeLa-2 cells. For this purpose, 20-120 mcg of MPs per ml of medium were added to the 199 medium. (See Table 2.) A culture without MPs in it was used as a control. Cultures were observed daily over the course of five days.
# benzidine skin sarcoma = assay: Benzidine skin sarcoma in Barbados mice
# [1] = system: Ehrlich's ascites adenocarcinoma; assay: Ehrlich's ascites adenocarcinoma in Barbados mice; settings: n = 10
smiles,measurement,setting,value
CC(=O)O[C@@]12CO[C@@H]1C[C@H](O)[C@@]1(C)C(=O)[C@H](O)C3=C(C)[C@@H](OC(=O)[C@H](O)[C@@H](NC(=O)OC(C)(C)C)c4ccccc4)C[C@@](O)([C@@H](OC(=O)c4ccccc4)[C@H]21)C3(C)C [Taxotere],MAD,HeLa-2 cells,10 µg/mL
same,"Weight of Animal, After Treatment","benzidine skin sarcoma; 100 mcg/kg parenterally twice a day for two weeks, n = 7",23 ± 1.1 g
same,"Weight of Animal, Before Treatment","benzidine skin sarcoma; baseline, n = 7",27 ± 2 g
same,Mice died,"benzidine skin sarcoma; during treatment, n = 7",2
same,Animal Survival,benzidine skin sarcoma; n = 10,28 ± 1.1 days
same,"Time of Death of Animals after the First Injection, Average Value, Experimental Animals",[1]; IP,14 ± 1 days
same,"Time of Death of Animals after the First Injection, Average Value, Experimental Animals",[1]; IV,15 ± 1 days
